Data from patent publication US4885239A, “Rapid differentiation of bacteria using polyether antibiotics” (Eastman Kodak Company, priority 1986, dated 1989).

Assays:
[1] = system: E. coli (gram -); experiment: inhibition of the reduction of RIND XXXV (Examples 8 and 9), E. coli; type: cell-based, Escherichia coli (ATCC 25922); details: 50 μl of 10 mg/ml antibiotic premixed with 1 ml cells (septamycin with calcium chloride), 30 minutes, 37° C., average of two replicates
Procedure: (§1) gram-negative bacteria Enterobacter cloacae (ATCC 23355), Escherichia coli (ATCC 25922), Proteus vulgaris (ATCC 13315), Klebsiella pneumoniae (ATCC 13883) and Pseudomonas aeruginosa (ATCC 27853), and gram-positive bacteria Staphylococcus aureus (ATCC 25923) and Streptococcus pyogenes (ATCC 19615), and brain heart infusion (BHI) broth from Difco Laboratories (Detroit, Mich.),
(§2) Bacterial suspensions were prepared by growing the cells in BHI to stationary phase overnight at 37° C. P. aeruginosa was grown with agitation. […]
(§3) Optical density readings (OD) were made at 635 nm at 0 minutes and after incubation at 37° C. for 30 minutes for all solutions, and the change (ΔOD) was determined. Table V below lists the results expressed as corrected percent inhibition of the reduction of RIND VII. The corrected percent inhibition was calculated by dividing the difference between ΔOD obtained from a Control test without antibiotic and the ΔOD of the test, by the ΔOD of the Control without antibiotic. All readings were corrected by subtracting readings of the appropriate background control. […]
(§4) Relative fluorescence was measured at an emission of 620 nm after excitation at 540 nm using a […] microfluor Reader, and the change in fluorescence (Δ relative fluorescence) after 30 minutes at 37° C. was determined as the average of two replicates.

[2] = system: S. aureus (gram +); experiment: inhibition of the reduction of RIND XXXV (Examples 8 and 9), S. aureus; type: cell-based, Staphylococcus aureus (ATCC 25923); details: 50 μl of 10 mg/ml antibiotic premixed with 1 ml cells (septamycin with calcium chloride), 30 minutes, 37° C., average of two replicates
Procedure: as §1, §2, §3, §4

[3] = system: viable gram-positive and gram-negative bacteria; experiment: differentiation of viable gram-positive and gram-negative bacteria (outcome in words); type: cell-based; details: for differentiation of gram-positive and gram-negative bacteria: RIND XXXV, Examples 8 and 9; for differentiating gram-positive and gram-negative bacteria: RIND VII, Examples 2-3
Procedure: as §1
(§5) Bacterial suspensions were prepared by growing the cells in BHI to stationary phase overnight at 37° C. P. aeruginosa was grown with agitation. About 40 ml of overnight cultures were centrifuged, decanted and washed once with 0.05 molar potassium phosphate buffer or 0.05 molar N-2-hydroxyethylpiperazine-N'-2-ethanesulfonic acid (HEPES) buffer, pH 7.8, and resuspended in buffer.
TERGITOL 7 anionic surfactant was used to differentiate viable bacteria according to the prior art method. Various concentrations of TERGITOL 7 surfactant were mixed with a 10% glucose solution (50 μl), 3-(4,5-dimethyl-2-thiazolyl)-2,5-diphenyl-2N-tetrazolium bromide (MTT) in methanol (25 μl at 5 mg/ml) or a RIND VII dispersion (1.5 ml) and phenazine methosulfate ETA (25 μl at 3 mg/ml methanol). The volume of each test solution was brought to 3 ml with potassium phosphate buffer. A cell suspension (100 μl at about 10^8 cells/ml) was then added. The solutions were incubated at 37° C. for 15 and 30 minutes in the presence of either E. coli, a gram (-) bacterium, or S. aureus, a gram (+) bacterium. The amount of dye formed was then determined visually and graded as follows: 0 indicates no dye formation, +/- indicates faint dye formation, 1+ indicates light dye formation, 2+ indicates moderate dye formation, 3+ indicates strong dye formation, and 4+ indicates very strong dye formation.
Calimycin, a polyether antibiotic, was similarly used with RIND VII in the differentiation of bacteria. Assays were performed as described above, except that 25 μl of 1 molar calcium chloride solution was added to each test solution and the P. aeruginosa response was measured in the presence of 10% yeast extract as the carbon source instead of glucose. The final concentration of calimycin in each test was 10^-3 molar.
(§6) The test solutions were prepared by adding the following, in order: 1.2 ml HEPES, 50 μl glucose solution, 1.5 ml RIND VII dispersion, 100 μl antibiotic solution, 100 μl cell suspension and 25 μl ETA solution. Cell control solutions contained all reagents except antibiotics. Background Controls consisted of both buffer and solution controls. The buffer control contained all reagents except antibiotics and cells. The solution control contained all reagents except cells.
(§7) Optical density readings (OD) were made at 635 nm at 0 minutes and after incubation at 37° C. for 30 minutes for all solutions, and the change (ΔOD) was determined. Table V below lists the results expressed as corrected percent inhibition of the reduction of RIND VII. The corrected percent inhibition was calculated by dividing the difference between ΔOD obtained from a Control test without antibiotic and the ΔOD of the test, by the ΔOD of the Control without antibiotic. All readings were corrected by subtracting readings of the appropriate background control.
Relative fluorescence was measured using a standard spectrophotometer modified to read at excitation of 540 nm and emission of 620 nm. The change (Δ) in relative fluorescence was determined after 30 minutes at 37° C. for several concentration levels of antibiotic.
Optical density measurements were obtained at 540 nm using a standard spectrophotometer and the change in optical density (ΔOD) was determined after 30 minutes at 37° C. The resulting data are shown in Table VII below for several concentrations of antibiotic. It is clear from the data that the composition of this example was useful for differentiating bacteria. […]

[4] = system: S. aureus (gram +); experiment: inhibition of the reduction of RIND VII (solution assay, Examples 2-3), S. aureus; type: cell-based, Staphylococcus aureus (ATCC 25923); details: 635 nm, 30 minutes, 37° C.
Procedure: as §1, §5
(§8) A dispersion containing a RIND compound was prepared by dissolving RIND VII from Table II above in N,N-dimethylformamide (DMF) at 16 mg compound per ml of solvent. An aliquot (250 μl) of the resulting solution was added to 500 μl of TRITON X-100 surfactant. This mixture was then added dropwise with stirring to 25 ml of 0.05 molar HEPES buffer. A solution containing a water-compatible RIND compound XXXV was prepared by dissolving the compound (16 mg/ml) in N,N-dimethylformamide which had been acidified with a 0.1% sulfuric acid solution.
(§9) The following materials were used in these examples: stock dispersion of RIND VII as described above, glucose (10% in water), trimethyl-1,4-benzoquinone ETA (1.5 mg/ml methanol), each antibiotic at 1, 5, and 10 mg/ml methanol. Microbial cells were grown as described above. The final approximate cell concentrations were: 1.4×10^7 cells/ml for E. coli and 2.4×10^7 cells/ml for S. aureus.
as §6, §7

[5] = system: E. coli (gram -); experiment: inhibition of the reduction of RIND VII (solution assay, Examples 2-3), E. coli; type: cell-based, Escherichia coli (ATCC 25922); details: 635 nm, 30 minutes, 37° C.
Procedure: as §1, §5, §8, §9, §6, §7

[6] = E1/2 (reduction potential) of the quinone nucleus of RIND compounds; type: physicochemical; details: quinone nucleus with hydrogen in place of the side chain
Text: Examples of such nuclei are presented below. […] Preferably, the E1/2 is from about +100 mV to about +400 mV as measured in water, or from about -650 to about -300 mV as measured in acetonitrile. […] Further details of measuring the E1/2 are described below prior to Table I. The desired E1/2 is achieved by appropriate electron withdrawing groups on the CAR--nucleus, or by a strained fused ring attached to the nucleus or a combination of both.
A standard calomel electrode was used as a standard. Some E1/2 values (denoted by *) were measured in acetonitrile using a saturated calomel electrode as a standard. E1/2 values not available are denoted by "NA".

[7] = aqueous emulsion, DMF, TRITON X-100, sodium phosphate buffer pH 7, calomel electrode
[8] = (*) in acetonitrile, saturated calomel electrode

Structure (SMILES): COC1CCC(OC2C(C)C(O)(C(C)C(=O)O)OC(CC3CC(OC)C(C)C4(O3)OC(C)(C3CCC(C5CCC(C6OC(C)(O)C(C)C(OC)C6C)O5)O3)C(OC)C4C)C2(C)OC)OC1C (stereo not drawn) [Antibiotic A204]
- Corrected Percent Inhibition [1]: 3.6%
- Corrected Percent Inhibition [2]: 35.8%
- differentiation of gram-positive and gram-negative bacteria [3]: useful for differentiation of gram-positive and gram-negative bacteria

Structure (SMILES): CC[C@@H](C(=O)[C@@H](C)[C@@H](O)[C@H](C)CCc1ccc(C)c(O)c1C(=O)O)[C@H]1O[C@](CC)([C@H]2CC[C@](O)(CC)[C@H](C)O2)C[C@@H]1C [Lasalocid, lasalocid]
- Corrected Percent Inhibition ([4]; antibiotic 0.033 mg/ml): 35.2%
- Corrected Percent Inhibition ([4]; antibiotic 0.166 mg/ml): 50.9%
- Corrected Percent Inhibition ([4]; antibiotic 0.333 mg/ml): 60.1%
- differentiating gram-positive and gram-negative bacteria [3]: effective in differentiating gram-positive and gram-negative bacteria
- Corrected Percent Inhibition ([5]; antibiotic 0.033 mg/ml): 6.6%
- Corrected Percent Inhibition ([5]; antibiotic 0.166 mg/ml): 10.5%
- Corrected Percent Inhibition ([5]; antibiotic 0.333 mg/ml): 25.5%

Structure (SMILES): CC[C@@]1([C@@H]2O[C@@H]([C@H]3O[C@@](O)(CO)[C@H](C)C[C@@H]3C)C[C@@H]2C)CC[C@H]([C@]2(C)CC[C@]3(C[C@H](O)[C@@H](C)[C@@H]([C@@H](C)[C@@H](OC)[C@H](C)C(=O)O)O3)O2)O1 [Monensin, monensin A]
- Corrected Percent Inhibition ([4]; antibiotic 0.033 mg/ml): 34.4%
- Corrected Percent Inhibition ([4]; antibiotic 0.166 mg/ml): 43.0%
- Corrected Percent Inhibition ([4]; antibiotic 0.333 mg/ml): 42.0%
- differentiating gram-positive and gram-negative bacteria [3]: effective in differentiating gram-positive and gram-negative bacteria
- Corrected Percent Inhibition ([5]; antibiotic 0.033 mg/ml): 5.1%
- Corrected Percent Inhibition ([5]; antibiotic 0.166 mg/ml): No inhibition
- Corrected Percent Inhibition ([5]; antibiotic 0.333 mg/ml): No inhibition

Structure (SMILES): CC(C1=C(CN(C)C(=O)Oc2ccc(N=Nc3ccc([N+](=O)[O-])cc3S(C)(=O)=O)c3c(NS(=O)(=O)c4cccc(S(N)(=O)=O)c4)cccc23)C(=O)C(C(C)c2ccc([N+](=O)[O-])cc2)=C(CN(C)C(=O)Oc2ccc(N=Nc3ccc([N+](=O)[O-])cc3S(C)(=O)=O)c3c(NS(=O)(=O)c4cccc(S(N)(=O)=O)c4)cccc23)C1=O)c1ccc([N+](=O)[O-])cc1 (stereo not drawn) [RIND II]
- E1/2 [6, 7]: +236 mV

Structure (SMILES): CN(CC1=C(c2ccccc2)C(=O)C(CN(C)C(=O)Oc2ccc(N=Nc3ccc([N+](=O)[O-])cc3S(C)(=O)=O)c3c(NS(=O)(=O)c4cccc(S(N)(=O)=O)c4)cccc23)=C(c2ccccc2)C1=O)C(=O)Oc1ccc(N=Nc2ccc([N+](=O)[O-])cc2S(C)(=O)=O)c2c(NS(=O)(=O)c3cccc(S(N)(=O)=O)c3)cccc12 [RIND IV]
- E1/2 [6, 8]: -460 mV

Structure (SMILES): CCCCCCCCCCNS(=O)(=O)c1ccc(C(C)C2=C(CN(C)C(=O)Oc3ccc(N=Nc4ccc([N+](=O)[O-])cc4S(C)(=O)=O)c4c(NS(=O)(=O)c5cccc(S(N)(=O)=O)c5)cccc34)C(=O)C(C(C)c3ccc(S(=O)(=O)NCCCCCCCCCC)cc3)=C(CN(C)C(=O)Oc3ccc(N=Nc4ccc([N+](=O)[O-])cc4S(C)(=O)=O)c4c(NS(=O)(=O)c5cccc(S(N)(=O)=O)c5)cccc34)C2=O)cc1 (stereo not drawn) [RIND I]
- E1/2 [6, 8]: -528 mV

Structure (SMILES): CN(CC1=C(c2ccc(C#N)cc2)C(=O)C2=C(C1=O)C1C=CC2CC1)C(=O)Oc1ccc(N=Nc2ccc([N+](=O)[O-])cc2S(C)(=O)=O)c2c(NS(=O)(=O)c3cccc(S(N)(=O)=O)c3)cccc12 (stereo not drawn) [RIND XVII]
- E1/2 [6, 7]: +240 mV

Structure (SMILES): CCCCCCCCCCNS(=O)(=O)c1ccc(C(C)C2=C(CN(C)C(=O)Oc3ccc4c(C)cc(=O)oc4c3)C(=O)C(C(C)c3ccc(S(=O)(=O)NCCCCCCCCCC)cc3)=C(CN(C)C(=O)Oc3ccc4c(C)cc(=O)oc4c3)C2=O)cc1 (stereo not drawn) [RIND XXII]
- E1/2 [6, 8]: -528 mV

Structure (SMILES): CCCCCCCCCCNS(=O)(=O)c1ccc(C(C)C2=C(CN(C)C(=O)Oc3ccc(N=Nc4cccc(S(N)(=O)=O)c4)c4c(NS(C)(=O)=O)cccc34)C(=O)C(C(C)c3ccc(S(=O)(=O)NCCCCCCCCCC)cc3)=C(CN(C)C(=O)Oc3ccc(N=Nc4cccc(S(N)(=O)=O)c4)c4c(NS(C)(=O)=O)cccc34)C2=O)cc1 (stereo not drawn) [RIND XXI]
- E1/2 [6, 8]: -528 mV

Structure (SMILES): CC1=C(C)C(=O)C(c2ccccc2)=C(CN(C)C(=O)Oc2ccc(N=Nc3ccc([N+](=O)[O-])cc3S(C)(=O)=O)c3c(NS(=O)(=O)c4cccc(S(N)(=O)=O)c4)cccc23)C1=O [RIND XXXVI]
- E1/2 [6, 7]: +144 mV

Structure (SMILES): CO[C@H]1C[C@@H](C[C@H]2O[C@@](O)([C@H](C)C(=O)O)[C@H](C)[C@H](OC)[C@@]2(C)O[C@H]2CC[C@@H](OC)[C@H](C)O2)O[C@]2(O[C@@](C)([C@@H]3CC[C@H]([C@H]4CC[C@H]([C@H]5O[C@](C)(O)[C@H](C)C[C@@H]5C)O4)O3)[C@H](OC)[C@H]2C)[C@@H]1C [Septamycin, septamycin]
- Corrected Percent Inhibition [1]: 52.3%
- Corrected Percent Inhibition [2]: 74.9%
- differentiation of gram-positive and gram-negative bacteria [3]: useful for differentiation of gram-positive and gram-negative bacteria
